Format in all cases: biochemical
Holding throughout (settings): no reducing agent

For assay [1], the target named is T1, F V (Homo sapiens, UniProt P12259).
T1 construct: from tissue; host or cells: human citrated blood plasma
In words: Coagulation factor V activity in plasma after reducing agent + iodoacetic acid. The protocol: (§1) Human blood with anti-coagulating agent (9 parts blood+1 part 3.8% trisodium citrate) is centrifuged and the following tests with plasma were carried out:
(§2) The plasma is divided into 8 ml portions, which are preheated at 37° C. for 5 min. DTT is added in different concentrations, see table 1 below, and is incubated for 5 min. at 37° C. Then iodoacetic acid, 3 mol per mol DTT, is added, and incubation takes place for 15 min. at 37° C. The plasma samples are distributed in portions of about 0.2 ml and are immediately frozen at -70° C. Testing of different coagulation factors is made in known manner.
(§3) The plasma is divided into 8 ml portions, which are preheated at 37° C. for 5 min. DTE is added in different concentrations (see table 2), and is incubated for 5 minutes at 37° C. Then, iodoacetic acid (3 mol per mol DTE) is added and incubation is carried out for 15 minutes at 37° C. The plasma samples are distributed in portions of about 0.2 ml and are immediately frozen at -70° C. Testing of different coagulation factors is made in a manner known per se.
(§4) The plasma is divided into 8 ml portions, which are preheated at 37° C. for 5 minutes. Lipoic acid is added in different concentrations (see table 3), and is incubated for 5 minutes at 37° C. Then, iodoacetic acid (3 mol per mol lipoic acid) is added and incubation is carried out for 15 minutes at 37° C. The plasma samples are distributed in portions of about 0.2 ml and are immediately frozen at -70° C. Testing of different coagulation factors is made in a manner known per se.
(§5) The plasma is divided into 8 ml portions, which are preheated at 37° C. for 5 minutes. Mercaptoethanol is added in different concentrations (see table 4), and is incubated for 5 minutes at 37° C. Then, iodoacetic acid (3 mol per mol mercaptoethanol) is added and incubation is carried out for 15 minutes at 37° C. The plasma samples are distributed in portions of about 0.2 ml and are immediately frozen at -70° C. Testing of different coagulation factors is made in a manner known per se.
(§6) The plasma is divided into 8 ml portions, which are preheated at 37° C. for 5 minutes. Potassium borohydride is added in different concentrations (see table 5, and is incubated for 5 minutes at 37° C. Then, iodoacetic acid (3 mol per mol potassium borohydride) is added and incubation is carried out for 15 minutes at 37° C. The plasma samples are distributed in portions of about 0.2 ml and are immediately frozen at -70° C. Testing of different coagulation factors is made in a manner known per se.

The target of assay [2] is T2, F X (Homo sapiens, UniProt P00742).
T2 construct: from tissue; host or cells: human citrated blood plasma
T2 sequence (P00742 235-488 limits assumed): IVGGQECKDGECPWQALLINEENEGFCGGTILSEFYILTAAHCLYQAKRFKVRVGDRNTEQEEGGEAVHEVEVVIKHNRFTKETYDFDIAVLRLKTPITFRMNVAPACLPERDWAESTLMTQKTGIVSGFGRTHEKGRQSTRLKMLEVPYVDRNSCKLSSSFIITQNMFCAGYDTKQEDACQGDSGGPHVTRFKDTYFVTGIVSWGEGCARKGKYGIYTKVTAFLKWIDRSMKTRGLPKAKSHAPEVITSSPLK
T2 sequence (P00742 41-179 limits assumed): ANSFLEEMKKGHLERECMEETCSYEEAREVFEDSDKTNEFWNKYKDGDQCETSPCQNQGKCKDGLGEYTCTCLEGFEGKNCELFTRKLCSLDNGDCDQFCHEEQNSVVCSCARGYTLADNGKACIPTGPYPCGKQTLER
In words: Coagulation factor X activity in plasma after reducing agent + iodoacetic acid. As for the experimental part:
as §1, §2, §3, §4, §5, §6

Assay [3] addresses T3, F II (Homo sapiens, UniProt P00734).
T3 construct: from tissue; host or cells: human citrated blood plasma
In words: Coagulation factor II activity in plasma after reducing agent + iodoacetic acid. The protocol:
as §1, §2, §3, §4, §5, §6

Where [4] appears, read: Table 1 B: control plasma + iodoacetic acid, same amount as in F.
Where [5] appears, read: Table 2 B: control plasma + iodoacetic acid, same amount as in E.
Setting [6] is: Table 3 B: control plasma + iodoacetic acid, same amount as in E.
The mark [7] stands for this setting: Table 4 B: control plasma + iodoacetic acid, same amount as in D.
[8] abbreviates: Table 5 B: control plasma + iodoacetic acid, same amount as in D.

T1 sequence (P12259 29-2224): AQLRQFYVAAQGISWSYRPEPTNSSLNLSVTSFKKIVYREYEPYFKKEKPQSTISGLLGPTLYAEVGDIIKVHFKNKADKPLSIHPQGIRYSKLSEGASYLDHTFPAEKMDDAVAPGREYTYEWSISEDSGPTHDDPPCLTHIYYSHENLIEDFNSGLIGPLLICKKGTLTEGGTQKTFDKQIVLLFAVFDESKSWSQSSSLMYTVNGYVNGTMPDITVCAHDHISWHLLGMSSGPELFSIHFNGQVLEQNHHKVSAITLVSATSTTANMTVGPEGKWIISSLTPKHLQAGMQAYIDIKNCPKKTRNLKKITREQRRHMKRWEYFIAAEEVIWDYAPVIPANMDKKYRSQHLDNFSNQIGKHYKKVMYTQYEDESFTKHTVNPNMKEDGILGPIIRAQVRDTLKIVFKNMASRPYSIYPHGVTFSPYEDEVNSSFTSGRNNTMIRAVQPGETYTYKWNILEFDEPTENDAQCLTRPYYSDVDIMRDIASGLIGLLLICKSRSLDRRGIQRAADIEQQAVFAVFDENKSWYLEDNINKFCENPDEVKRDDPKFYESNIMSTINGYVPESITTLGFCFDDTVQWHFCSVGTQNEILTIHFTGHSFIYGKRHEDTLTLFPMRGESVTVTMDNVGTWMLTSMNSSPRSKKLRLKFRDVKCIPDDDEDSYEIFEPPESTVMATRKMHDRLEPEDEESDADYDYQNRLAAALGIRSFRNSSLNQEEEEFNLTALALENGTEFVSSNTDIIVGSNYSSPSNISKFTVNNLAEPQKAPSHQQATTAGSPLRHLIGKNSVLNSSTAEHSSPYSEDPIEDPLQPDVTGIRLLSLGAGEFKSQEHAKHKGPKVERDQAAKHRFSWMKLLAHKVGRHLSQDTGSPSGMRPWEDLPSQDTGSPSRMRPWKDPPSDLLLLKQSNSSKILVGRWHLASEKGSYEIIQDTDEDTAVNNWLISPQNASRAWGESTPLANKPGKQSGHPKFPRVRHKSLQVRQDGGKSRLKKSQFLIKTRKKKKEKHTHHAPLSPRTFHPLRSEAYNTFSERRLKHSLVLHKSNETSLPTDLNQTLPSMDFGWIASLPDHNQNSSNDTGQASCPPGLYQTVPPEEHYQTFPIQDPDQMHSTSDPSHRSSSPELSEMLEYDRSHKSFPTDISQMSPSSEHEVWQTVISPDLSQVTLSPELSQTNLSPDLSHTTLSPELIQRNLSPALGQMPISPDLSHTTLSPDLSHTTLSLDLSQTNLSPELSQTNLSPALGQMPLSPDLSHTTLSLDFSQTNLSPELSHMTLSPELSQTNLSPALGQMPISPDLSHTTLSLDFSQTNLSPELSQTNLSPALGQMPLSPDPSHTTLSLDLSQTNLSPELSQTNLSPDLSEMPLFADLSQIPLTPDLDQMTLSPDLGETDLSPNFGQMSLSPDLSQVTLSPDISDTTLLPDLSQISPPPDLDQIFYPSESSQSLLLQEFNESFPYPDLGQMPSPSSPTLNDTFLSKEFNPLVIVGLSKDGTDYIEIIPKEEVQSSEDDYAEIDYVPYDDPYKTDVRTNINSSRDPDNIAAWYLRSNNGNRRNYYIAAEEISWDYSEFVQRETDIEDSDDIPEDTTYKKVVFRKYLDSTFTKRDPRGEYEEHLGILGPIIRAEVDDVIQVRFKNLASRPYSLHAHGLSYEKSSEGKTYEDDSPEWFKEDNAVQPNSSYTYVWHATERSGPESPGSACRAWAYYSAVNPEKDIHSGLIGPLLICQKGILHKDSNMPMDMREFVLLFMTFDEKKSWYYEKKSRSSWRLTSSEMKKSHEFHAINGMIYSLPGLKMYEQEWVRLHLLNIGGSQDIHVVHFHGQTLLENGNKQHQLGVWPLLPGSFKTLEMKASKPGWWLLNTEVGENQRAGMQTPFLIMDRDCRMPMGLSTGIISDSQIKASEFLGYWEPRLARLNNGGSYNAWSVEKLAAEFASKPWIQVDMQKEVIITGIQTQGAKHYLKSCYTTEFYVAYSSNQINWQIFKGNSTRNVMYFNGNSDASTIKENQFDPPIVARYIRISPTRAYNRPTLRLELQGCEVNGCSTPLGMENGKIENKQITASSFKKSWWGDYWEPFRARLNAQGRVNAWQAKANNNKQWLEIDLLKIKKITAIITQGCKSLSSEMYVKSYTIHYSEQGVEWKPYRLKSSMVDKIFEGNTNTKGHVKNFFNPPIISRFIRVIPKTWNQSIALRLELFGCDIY

Consider `O=C(O)CI` [iodoacetic acid], for which the “Coagulation factor F V” value in assay [1] (setting [4]) is listed as 95 % of control; in assay [1] (setting [5]), 105 % of control; in assay [1] (setting [6]), 105 % of control; in assay [1] (setting [7]), 67 % of control; in assay [1] (setting [8]), 67 % of control. Moreover, the “Coagulation factor F X” value in assay [2] (setting [4]) was 96 % of control; in assay [2] (setting [5]), 87 % of control; in assay [2] (setting [6]), 87 % of control; in assay [2] (setting [7]) it was 86 % of control; in assay [2] (setting [8]), 86 % of control. In addition, the “Coagulation factor F II” value in assay [3] (setting [4]) was 99 % of control; in assay [3] (setting [5]), 100 % of control; in assay [3] (setting [6]), 100 % of control; in assay [3] (setting [7]), 88 % of control; in assay [3] (setting [8]), 88 % of control.

These data come from US4229435A, “Preparation of blood fraction” (priority 1978, dated 1980).
